Results as given in patent publication US5972893A, “Method of treating hyperprolactinemia and prolactinomas” (Cedars-Sinai Medical Center, priority 1997, dated 1999).
Positions of bridges follow the written chain, without caps; N, C: chain ends. Non-standard residues stand in square brackets, D forms with d. Residues, ends and D or L forms follow the SMILES beside them.

Experiments:
[1] = system: cells derived from prolactin-secreting pituitary adenomas; assay: Reduction of prolactin secretion from prolactinoma cell cultures; assay type: cell-based, human; settings: for effect on prolactin release (in words): tumor 1 adenomatous cell cultures, 10-100 nM; for effect on prolactin release (in words) / suppression of prolactin secretion: 3 hours; for suppression of prolactin release / effect on prolactin production (in words): large tumor 4 cell cultures; for suppression of prolactin secretion: tumor 1 cell cultures; for response of cells from the four large male tumors (in words): tumors 1, 2, 3 and 4 (macroprolactinomas of male patients)
human SSTR-1 = human SSTR-1 (Homo sapiens, UniProt P30872); assay: Somatostatin receptor binding assay, hSSTR-1
Chain of human SSTR-1 (P30872 whole entry): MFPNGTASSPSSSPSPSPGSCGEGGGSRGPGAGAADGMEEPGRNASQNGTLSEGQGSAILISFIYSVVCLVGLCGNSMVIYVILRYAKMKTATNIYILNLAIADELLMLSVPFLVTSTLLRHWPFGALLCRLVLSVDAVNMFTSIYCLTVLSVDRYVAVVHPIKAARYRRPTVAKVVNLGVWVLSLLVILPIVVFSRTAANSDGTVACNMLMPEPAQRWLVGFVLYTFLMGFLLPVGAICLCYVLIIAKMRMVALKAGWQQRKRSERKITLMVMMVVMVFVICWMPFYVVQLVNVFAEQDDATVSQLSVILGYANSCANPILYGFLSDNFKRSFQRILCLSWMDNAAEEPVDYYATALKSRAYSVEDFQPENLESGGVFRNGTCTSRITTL

human SSTR-3 = human SSTR-3 (Homo sapiens, UniProt P32745); assay: Somatostatin receptor binding assay, hSSTR-3
Chain of human SSTR-3 (P32745 whole entry): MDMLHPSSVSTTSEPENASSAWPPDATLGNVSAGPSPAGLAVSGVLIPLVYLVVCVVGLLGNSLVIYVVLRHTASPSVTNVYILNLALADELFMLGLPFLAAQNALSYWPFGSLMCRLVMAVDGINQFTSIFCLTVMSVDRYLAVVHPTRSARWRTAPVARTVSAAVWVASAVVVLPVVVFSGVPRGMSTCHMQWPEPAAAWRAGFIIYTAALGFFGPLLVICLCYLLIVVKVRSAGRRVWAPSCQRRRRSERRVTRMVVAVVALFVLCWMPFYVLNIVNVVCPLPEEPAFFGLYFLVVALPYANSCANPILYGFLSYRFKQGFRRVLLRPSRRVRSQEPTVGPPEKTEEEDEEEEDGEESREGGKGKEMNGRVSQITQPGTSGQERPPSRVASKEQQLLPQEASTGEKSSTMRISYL

SMILES	effect on prolactin release (in words) [1]	response of cells from the four large male tumors (in words) [1]	other results
CC[C@@H]1NC(=O)[C@H](CCCCN)NC(=O)[C@@H](Cc2c[nH]c3ccccc23)NC(=O)[C@H](Cc2ccc(O)cc2)NC(=O)[C@@H](NC(=O)[C@H](N)Cc2ccccc2)CSSC[C@@H](C(=O)N[C@H](C(N)=O)[C@@H](C)O)NC1=O [BIM-23023]	did not affect prolactin release	–	–
C[C@@H](O)[C@H](NC(=O)[C@H](Cc1ccccc1)NC(=O)[C@@H](NC(=O)[C@H](CCCCN)NC(=O)[C@@H](Cc1c[nH]c2ccccc12)NC(=O)[C@H](Cc1ccccc1)NC(=O)[C@H](Cc1ccccc1)NC(=O)[C@H](N)Cc1ccccc1)[C@@H](C)O)C(N)=O [BIM-23052, H-D-Phe-Phe-Phe-D-Trp-Lys-Thr-Phe-Thr-NH2] (H-[dF]FF[dW]KTFT-NH2)	–	suppression of prolactin secretion	suppression of prolactin release ([1]; p<0.05): more than 30%; suppression of prolactin secretion ([1]; 10 nM, p<0.05): 33%
CC[C@@H]1NC(=O)[C@H](CCCCN)NC(=O)[C@@H](Cc2c[nH]c3ccccc23)NC(=O)[C@H](Cc2ccc(O)cc2)NC(=O)[C@@H](NC(=O)[C@@H](Cc2ccccc2)NC(=O)CN2CCN(CCO)CC2)CSSC[C@@H](C(=O)N[C@H](C(N)=O)[C@@H](C)O)NC1=O [BIM-23190]	did not affect prolactin release	failed to respond	effect on prolactin production (in words) [1]: modestly stimulated prolactin production
CC[C@@H]1NC(=O)[C@H](CCCCN)NC(=O)[C@@H](Cc2c[nH]c3ccccc23)NC(=O)[C@H](Cc2ccc(O)cc2)NC(=O)[C@@H](NC(=O)[C@@H](Cc2ccccc2)NS(=O)(=O)CCN2CCN(CCO)CC2)CSSC[C@@H](C(=O)N[C@H](C(N)=O)[C@@H](C)O)NC1=O [BIM-23197]	did not affect prolactin release	failed to respond	effect on prolactin production (in words) [1]: modestly stimulated prolactin production
C[C@@H](O)[C@@H]1NC(=O)[C@H](CCCCN)NC(=O)[C@@H](Cc2c[nH]c3ccccc23)NC(=O)[C@H](Cc2ccccc2)NC(=O)[C@H](Cc2ccccc2)NC(=O)[C@@H](N)CSSC[C@@H](C(N)=O)NC(=O)[C@H](Cc2ccccc2)NC1=O [BIM-23268, H-Cys-Phe-Phe-D-Trp-Lys-Thr-Phe-Cys-NH2] (H-CFF[dW]KTFC-NH2; disulfide 1-8)	–	suppression of prolactin secretion	suppression of prolactin ([1]; large tumor 3 cell cultures, 10 nM and 100 nM, dose dependent, p<0.05): up to 29%; suppression of prolactin release ([1]; p<0.05): more than 30%; suppression of prolactin secretion ([1]; 10 nM, p<0.05): 36%; inhibition of prolactin release versus controls ([1]; tumor 2 cell cultures, 10 nM, p<0.0005): 38%
CC(C)[C@@H]1NC(=O)[C@H](CCCCN)NC(=O)[C@@H](Cc2c[nH]c3ccccc23)NC(=O)[C@H](Cc2ccc(O)cc2)NC(=O)[C@@H](NC(=O)[C@H](N)Cc2ccc3ccccc3c2)CSSC[C@@H](C(=O)N[C@H](C(N)=O)[C@@H](C)O)NC1=O [Lanreotide]	did not affect prolactin release	failed to respond	Ki (human SSTR-1): 2410 nM; Ki (human SSTR-3): 97.9 nM
C[C@@H](O)[C@@H]1NC(=O)[C@H](CCCCN)NC(=O)[C@@H](Cc2c[nH]c3ccccc23)NC(=O)[C@H](Cc2ccccc2)NC(=O)[C@@H](NC(=O)[C@H](N)Cc2ccccc2)CSSC[C@@H](C(=O)N[C@H](CO)[C@@H](C)O)NC1=O [Octreotide]	–	failed to respond	–
